Data as given in patent publication US20120029048A1, “PHENYLALKYL N-HYDROXYUREAS FOR TREATING LEUKOTRIENE RELATED PATHOLOGIES” (VIA Pharmaceuticals, Inc., priority 2010, published 2012).

Key:
leukotriene B4 (LTB4) = assay: Ex vivo LTB4 in blood by ELISA, Phase 2 ACS study; set-up: species or system human; conditions: trough drug levels
Description: (§1) In this randomized, placebo-controlled study, 191 patients were randomized 3 weeks after an acute coronary syndrome (ACS) to receive 25, 50, or 100 mg N-[3-[5-[(4-fluorophenyl)methyl]-2-thienyl]-1-methyl-2-propynyl]-N-hydroxyurea or placebo qd for 12 weeks. Baseline assessments were performed at the start of treatment and these baseline results were compared with repeat assessments during various follow-up periods during the treatment study. A subset of 93 patients who had undergone a Multidetector (64 slice coronary) Computerized Tomography (MDCT) examination at baseline continued on study medication for a total of 24 weeks and underwent a repeat scan. Patients received a single daily oral dose of 25 mg, 50 mg, or 100 mg of N-[3-[5-[(4-fluorophenyl)methyl]-2-thienyl]-1-methyl-2-propynyl]-N-hydroxyurea or matching placebo by administering 2 capsules as prepared in Example 3 for 12 weeks or 24 weeks. Blood samples for measurement of ex vivo leukotriene B4 (LTB4) and high sensitivity C reactive protein (hsCRP), and urine samples for measurement of urinary leukotriene E4 (LTE4) levels were collected pre-dose on weeks 2, 6 and 12. Blood samples were assayed for ex vivo LTB4 by enzyme-linked immunosorbent assay, and for hsCRP by an immunoturbidimetric method. Urine samples were assayed for LTE4 using Liquid Chromatography with Tandem Mass Spectrometry (LC/MS/MS).

leukotriene E4 (LTE4) = assay: Urinary LTE4 by LC/MS/MS, Phase 2 ACS study; assay type: in vivo, human; conditions: all doses (25, 50, 100 mg qd), ACS patients
Description: as §1

[1] = test system: high sensitivity C reactive protein (hsCRP); assay: hsCRP in blood by immunoturbidimetric method, Phase 2 ACS study; assay type: in vivo, human; conditions: for hsCRP change from baseline, LSMEANS geometric mean (%) / hsCRP change from baseline, Median (25-75): 12 weeks
Description: as §1

non-calcified plaque = assay: Serial MDCT coronary plaque imaging, Phase 2 ACS study, 24-week substudy; assay type: in vivo, human; conditions: all three doses, 24 weeks, compared with placebo
Description: In this randomized, placebo-controlled study, 191 patients were randomized 3 weeks after an acute coronary syndrome (ACS) to receive 25, 50, or 100 mg N-[3-[5-[(4-fluorophenyl)methyl]-2-thienyl]-1-methyl-2-propynyl]-N-hydroxyurea or placebo qd for 12 weeks. Baseline assessments were performed at the start of treatment and these baseline results were compared with repeat assessments during various follow-up periods during the treatment study. A subset of 93 patients who had undergone a Multidetector (64 slice coronary) Computerized Tomography (MDCT) examination at baseline continued on study medication for a total of 24 weeks and underwent a repeat scan. For those patients who continued on study medication for a total of 24 weeks, contrast-enhanced CT examination was performed at baseline and after 24 weeks of treatment with a 64-slice scanner (GE LightSpeed VCT; GE Healthcare, USA). Target plaque lesions were defined prospectively as non-calcified plaque with measurable low-density components of <60 HU situated in the proximal or middle portion of either the left main, left anterior ascending, left circumflex or right coronary artery causing at least 20% luminal stenosis. Prior to analysis of results, patients had their MDCT examinations evaluated twice by the same reviewer and also by a second reviewer for evaluation of intraobserver and interobserver variability of measurements.

LTB4 = assay: Ex vivo LTB4 in blood by ELISA, Phase 2 CEA study; set-up: species or system human; conditions: 100 mg qd oral 12 weeks, CEA patients, compared with placebo (p<0.0001)
Description: (§2) In this randomized, double blind, placebo-controlled study, 50 patients with significant carotid artery stenosis (60-90%) were treated once daily for 12 weeks with orally administered 100 mg N-[3-[5-[(4-fluorophenyl)methyl]-2-thienyl]-1-methyl-2-propynyl]-N-hydroxyurea or placebo prior to undergoing CEA, at which time endarterectomy tissue (plaque) was collected and stored for subsequent tissue analysis. Baseline assessments are performed at the start of treatment and these baseline results were compared with repeat assessments during various follow-up periods of treatment. The treatment was conducted for twelve weeks at which time these baseline assessments were performed and compared. Patients received a total single daily oral dose of 100 mg of N-[3-[5-[(4-fluorophenyl)methyl]-2-thienyl]-1-methyl-2-propynyl]-N-hydroxyurea or matching placebo by administering 2 capsules as prepared in Example 3 for 12 weeks. Blood samples for measurement of ex vivo LTB4 and hsCRP, and urine samples for measurement of urinary LTE4 levels were collected pre-dose on weeks 2, 6 and 12. […] LTB4, LTE4 and hsCRP biomarker data were assessed using change from baseline comparisons and an ANCOVA was used to compare the treatment groups where the covariate was the baseline value of the outcome measure. […]

LTE4 = assay: Urinary LTE4 by LC/MS/MS, Phase 2 CEA study; assay type: in vivo, human; conditions: 100 mg qd oral 12 weeks, CEA patients, compared with placebo (p<0.01)
Description: as §2

hsCRP = hsCRP in blood by immunoturbidimetric method, Phase 2 CEA study; assay type: in vivo, human; conditions: 100 mg qd oral 12 weeks, CEA patients, compared with placebo (p<0.01)
Description: as §2

[2] = test system: carotid plaques with rupture-prone histological subtypes; assay: Relative necrotic core thickness in carotid plaques, Phase 2 CEA study; assay type: in vivo, human; conditions: rupture-prone plaque subtypes, 100 mg qd 12 weeks, compared with placebo (p<0.02)
Description: (§3) In this randomized, double blind, placebo-controlled study, 50 patients with significant carotid artery stenosis (60-90%) were treated once daily for 12 weeks with orally administered 100 mg N-[3-[5-[(4-fluorophenyl)methyl]-2-thienyl]-1-methyl-2-propynyl]-N-hydroxyurea or placebo prior to undergoing CEA, at which time endarterectomy tissue (plaque) was collected and stored for subsequent tissue analysis. Baseline assessments are performed at the start of treatment and these baseline results were compared with repeat assessments during various follow-up periods of treatment. The treatment was conducted for twelve weeks at which time these baseline assessments were performed and compared.
(§4) At the end of 12 weeks treatment with 100 mg of N-[3-[5-[(4-fluorophenyl)methyl]-2-thienyl]-1-methyl-2-propynyl]-N-hydroxyurea, patients underwent CEA, at which time endarterectomy tissue (plaque) was collected, fixed in 10% formalin and paraffin blocks, and stored for subsequent tissue analysis. […] A portion of each of the plaques was also analyzed for inflammatory gene expression after isolation of total RNA and reverse transcription using a TaqMan® High Capacity cDNA assay.
(§5) LTB4, LTE4 and hsCRP biomarker data were assessed using change from baseline comparisons and an ANCOVA was used to compare the treatment groups where the covariate was the baseline value of the outcome measure. […]

[3] = test system: inflammatory genes IL-6, IL 8, IL-10, MMP9, I-kappa-B, osteopontin; assay: Inflammatory gene expression in carotid plaques (TaqMan), Phase 2 CEA study; assay type: in vivo, human; conditions: rupture-prone plaque subtypes, 100 mg qd 12 weeks
Description: as §3, §4, §5

[4] = 12-week main population, 25 mg qd oral
[5] = 12-week main population, 50 mg qd oral
[6] = 12-week main population, 100 mg qd oral
[7] = 24-week CT substudy population, 25 mg qd oral
[8] = 24-week CT substudy population, 50 mg qd oral
[9] = 24-week CT substudy population, 100 mg qd oral

CC(C#Cc1ccc(Cc2ccc(F)cc2)s1)N(O)C(N)=O (stereo not shown) [VIA-2291, N-[3-[5-[(4-fluorophenyl)methyl]-2-thienyl]-1-methyl-2-propynyl]-N-hydroxyurea]
patients with approximately 80% inhibition of ex vivo LTB4 (leukotriene B4 (LTB4); 100-mg group): > 90 % of patients
inhibition of ex vivo LTB4 (leukotriene B4 (LTB4); 100-mg group, ACS patients): approximately 80%
effect on ex vivo leukotriene LTB4 (leukotriene B4 (LTB4); all doses (25, 50, 100 mg qd), P<0.0001, dose-dependent): significantly reduced
effect on urinary leukotriene LTE4 (leukotriene E4 (LTE4)): significantly reduced
change in hsCRP within group between 12 and 24 weeks ([1]; 100 mg group (P<0.01)): significant reduction
hsCRP at 12 weeks, Median (25-75) ([1]; 12-week main population, 25 mg qd oral (n = 44)): 1.1 (0.6, 2.5)
hsCRP at 12 weeks, Median (25-75) ([1]; 12-week main population, 50 mg qd oral (n = 38)): 1.3 (0.4, 2.7)
hsCRP at 12 weeks, Median (25-75) ([1]; 12-week main population, 100 mg qd oral (n = 38)): 0.6 (0.3, 2.5)
hsCRP change from baseline, LSMEANS geometric mean (%) [1, 4]: −25.32%
hsCRP change from baseline, Median (25-75) [1, 4]: −0.2 (−1.1, 0.4)
hsCRP change from baseline, LSMEANS geometric mean (%) [1, 5]: −29.13%
hsCRP change from baseline, Median (25-75) [1, 5]: −0.1 (−1.9, 0.1)
hsCRP change from baseline, LSMEANS geometric mean (%) [1, 6]: −38.99%
hsCRP change from baseline, Median (25-75) [1, 6]: −0.3 (−0.8, 0.1)
hsCRP 12 weeks change from baseline, LSMEANS geometric mean (%) [1, 7]: −24.82%
hsCRP 12 weeks change from baseline, Median (25-75) [1, 7]: −0.1 (−1.5, 0.8)
hsCRP 24 weeks change from baseline, LSMEANS geometric mean (%) [1, 7]: −32.91%
hsCRP 24 weeks change from baseline, Median (25-75) [1, 7]: −0.4 (−1.2, 0.3)
hsCRP at 24 weeks, Median (25-75) [1, 7]: 1.2 (0.7, 2.1)
hsCRP at 12 weeks, Median (25-75) ([1]; 24-week CT substudy population, 25 mg qd oral (n = 23)): 1.1 (0.6, 2.4)
hsCRP 12 weeks change from baseline, LSMEANS geometric mean (%) [1, 8]: −22.71%
hsCRP 12 weeks change from baseline, Median (25-75) [1, 8]: −0.1 (−5.0, 0.6)
hsCRP 24 weeks change from baseline, LSMEANS geometric mean (%) [1, 8]: −27.05%
hsCRP 24 weeks change from baseline, Median (25-75) [1, 8]: −0.2 (−3.7, 0.2)
hsCRP at 24 weeks, Median (25-75) [1, 8]: 1.5 (0.6, 2.6)
hsCRP at 12 weeks, Median (25-75) ([1]; 24-week CT substudy population, 50 mg qd oral (n = 20)): 1.7 (0.4, 4.3)
hsCRP 12 weeks change from baseline, LSMEANS geometric mean (%) [1, 9]: −39.05%
hsCRP 12 weeks change from baseline, Median (25-75) [1, 9]: −0.3 (−2.4, 0.1)
hsCRP 24 weeks change from baseline, LSMEANS geometric mean (%) [1, 9]: −67.16%
hsCRP 24 weeks change from baseline, Median (25-75) [1, 9]: −0.4 (−3.9, −0.2)
hsCRP at 24 weeks, Median (25-75) [1, 9]: 0.3 (0.2, 0.9)
hsCRP at 12 weeks, Median (25-75) ([1]; 24-week CT substudy population, 100 mg qd oral (n = 18)): 0.6 (0.4, 2.0)
decrease in hsCRP ([1]; 100-mg group at 24 weeks, compared with placebo (P=0.0002)): 67%
effect on new plaque lesions in serial MDCT images (non-calcified plaque): reduced
effect on non-calcified plaque volume in serial MDCT images (non-calcified plaque): reduced
reduction of ex vivo LTB4 (LTB4): approximately 90%
reduction of urine LTE4 (LTE4): 65%
reduction of hsCRP (hsCRP): 2.0 mg/L
reduction of relative necrotic core thickness [2]: 21%
expression of inflammatory genes IL-6, IL 8, IL-10, MMP9, I-kappa-B, osteopontin [3]: reduction in expression
